In US20250163104A1, “MACROCYCLIC IMMUNOMODULATORS” (priority 2021, published 2025) one finds IC50 data, which are given here for six compounds.

Where a SMILES comes first, the peptide text is derived from it. Bridges are numbered along the chain shown (N, C = ends). [ ]: non-standard residue; d: D form. The star is where a group is joined. Bip = N[C@@H](Cc1ccc(-c2ccccc2)cc1)C(=O)O; Cha = N[C@@H](CC1CCCCC1)C(=O)O; Carboxymethyl = O=C(O)C*; Orn = NCCC[C@H](N)C(=O)O; Dab = NCC[C@H](N)C(=O)O; Dap = NC[C@H](N)C(=O)O

The target of this experiment is T1, human PD-1 / PD-L1-Ig binding on Jurkat cell line over-expressing human PD-1 (Jurkat-PD-1) (Homo sapiens, UniProt Q15116).
T1 construct: expressed in transfected cells; host or cells: Jurkat
T1 sequence (Q15116 25-288): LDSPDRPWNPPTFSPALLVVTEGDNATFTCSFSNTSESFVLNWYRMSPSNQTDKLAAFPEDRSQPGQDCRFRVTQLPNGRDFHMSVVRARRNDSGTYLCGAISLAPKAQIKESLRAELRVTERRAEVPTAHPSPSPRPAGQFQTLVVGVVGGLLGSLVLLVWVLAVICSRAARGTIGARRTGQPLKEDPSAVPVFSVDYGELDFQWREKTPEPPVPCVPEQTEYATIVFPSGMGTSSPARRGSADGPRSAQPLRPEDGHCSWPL
In words: Jurkat-PD-1 Cell Binding High-Content Screening Assay (CBA). Conditions: Jurkat-PD-1 cells, PE-labeled PD-L1-Ig 20 nM final; read-out: Jurkat HPD1_PDL1 IC50. The class given is cell-based. An outline of the steps: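 Jurkat cells over-expressing human PD-1, in DMEM/10% FCS, pre-incubated with compound 2 h at 37° C. PE-labeled human PD-L1-Ig (20 nM final) added for 1 h; cells fixed in paraformaldehyde with Hoechst 33342 nuclear stain, washed, and bound fluorescence quantified by high-content imaging.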
As for `CC(C)C[C@H]1NC(=O)[C@H](CCCN)NC(=O)[C@H](CN)NC(=O)[C@H](Cc2ccc(-c3ccccc3)cc2)NC(=O)[C@H](C(C)C)NC(=O)[C@H](Cc2c[nH]c3ccccc23)NC(=O)[C@H](CC(=O)O)NC(=O)[C@H](Cc2ccc(OCC(=O)O)cc2)NC(=O)[C@H](CN)NC(=O)CSC[C@@H](C(=O)N[C@@H](C)C(N)=O)NC(=O)[C@H]([C@@H](C)O)NC(=O)[C@H](C(C)C)NC(=O)[C@H](CC2CCCCC2)NC(=O)[C@H](CCN)NC1=O` [Compound 1376], the IC50 amounted to 0.0072 µM.
Regarding `CC(C)C[C@H]1NC(=O)[C@H](CCCN)NC(=O)[C@H](CCCCN)NC(=O)[C@H](Cc2ccc(-c3ccccc3)cc2)NC(=O)[C@H](C(C)C)NC(=O)[C@H](Cc2c[nH]c3ccccc23)NC(=O)[C@H](CC(=O)O)NC(=O)[C@H](Cc2ccc(OCC(=O)O)cc2)NC(=O)[C@H](CN)NC(=O)CSC[C@@H](C(=O)N[C@@H](C)C(N)=O)NC(=O)[C@H]([C@@H](C)O)NC(=O)[C@H](C(C)C)NC(=O)[C@H](CC2CCCCC2)NC(=O)[C@H](CCN)NC1=O` [Compound 1377] ({CH2CO}-[Dap]Y(Carboxymethyl)DWV[Bip]K[Orn][dL][Dab][Cha]VTCA-NH2; thioether N-14), the IC50 was 0.0089 µM.
In the case of `CC(C)C[C@H]1NC(=O)[C@H](CCCN)NC(=O)[C@H](CCCN)NC(=O)[C@H](Cc2ccc(-c3ccccc3)cc2)NC(=O)[C@H](C(C)C)NC(=O)[C@H](Cc2c[nH]c3ccccc23)NC(=O)[C@H](CC(=O)O)NC(=O)[C@H](Cc2ccc(O)cc2)NC(=O)[C@H](CC(N)=O)NC(=O)CSC[C@@H](C(=O)N[C@@H](C)C(N)=O)NC(=O)[C@H]([C@@H](C)O)NC(=O)[C@H](C(C)C)NC(=O)[C@H](CC2CCCCC2)NC(=O)[C@H](CCN)NC1=O` [Compound 1378] ({CH2CO}-NYDWV[Bip][Orn][Orn][dL][Dab][Cha]VTCA-NH2; thioether N-14) it was 0.0137 µM.
As for `CC(C)C[C@H]1NC(=O)[C@H](CCCN)NC(=O)[C@H](CCN)NC(=O)[C@H](Cc2ccc(-c3ccccc3)cc2)NC(=O)[C@H](C(C)C)NC(=O)[C@H](Cc2c[nH]c3ccccc23)NC(=O)[C@H](CC(=O)O)NC(=O)[C@H](Cc2ccc(O)cc2)NC(=O)[C@H](CC(N)=O)NC(=O)CSC[C@@H](C(=O)N[C@@H](C)C(N)=O)NC(=O)[C@H]([C@@H](C)O)NC(=O)[C@H](C(C)C)NC(=O)[C@H](CC2CCCCC2)NC(=O)[C@H](CCN)NC1=O` [Compound 1379], the IC50 was determined as 0.033 µM.
As for `CC(C)C[C@H]1NC(=O)[C@H](CCCN)NC(=O)[C@H](CN)NC(=O)[C@H](Cc2ccc(-c3ccccc3)cc2)NC(=O)[C@H](C(C)C)NC(=O)[C@H](Cc2c[nH]c3ccccc23)NC(=O)[C@H](CC(=O)O)NC(=O)[C@H](Cc2ccc(O)cc2)NC(=O)[C@H](CC(N)=O)NC(=O)CSC[C@@H](C(=O)N[C@@H](C)C(N)=O)NC(=O)[C@H]([C@@H](C)O)NC(=O)[C@H](C(C)C)NC(=O)[C@H](CC2CCCCC2)NC(=O)[C@H](CCN)NC1=O` [Compound 1380], the IC50 came to 0.0168 µM.
With `CC(C)C[C@H]1NC(=O)[C@H](CCCN)NC(=O)[C@H](CCCCN)NC(=O)[C@H](Cc2ccc(-c3ccccc3)cc2)NC(=O)[C@H](C(C)C)NC(=O)[C@H](Cc2c[nH]c3ccccc23)NC(=O)[C@H](CC(=O)O)NC(=O)[C@H](Cc2ccc(O)cc2)NC(=O)[C@H](CC(N)=O)NC(=O)CSC[C@@H](C(=O)N[C@@H](C)C(N)=O)NC(=O)[C@H]([C@@H](C)O)NC(=O)[C@H](C(C)C)NC(=O)[C@H](CC2CCCCC2)NC(=O)[C@H](CCN)NC1=O` [Compound 1381] ({CH2CO}-NYDWV[Bip]K[Orn][dL][Dab][Cha]VTCA-NH2; thioether N-14), the IC50 amounted to 0.0133 µM.
